The test system of one assay is IL-6. Briefly: Cytokine production inhibitory activity, Concanavalin A stimulated mononuclear cells, ELISA: IL-6. The assay is classed as cell-based. As to conditions: IL-6 in culture supernatant, Concanavalin A 5 µg/ml, forty-eight hours. The method, then:
(§1) After human blood obtained in heparinized tube was layered on the Filcoll - Hypaque mixed solution (density=1.114, mono-poly separation solution, Dainippon Pharmaceutical Co., Ltd.), it was centrifuged to prepare mononuclear cells. The obtained mononuclear cells were suspended in a medium (Macrophage-SFM:GIBCO) to adjust 2 X 10^6 cells/ml and cultivated in 48-well plates. Ten minutes later addition of the compound of the present invention, Concanavalin A (5 µg/ml) was added to stimulate cells. After forty-eight hours, IL-1β, IL-2, IL-4, IL-5, IL-6, TNF-α and IFNγ in the culture supernatant were quantified by ELISA method. The following kits were used for the quantification of these cytokines. • IL-1β: Quantikine(Trademark) Human IL-1β ELISA KIT (R&D system) • IL-2: Quantikine(Trademark) Human IL-2 ELISA KIT (R&D system) • IL-4: Quantikine(Trademark) Human IL-4 ELISA KIT (R&D system) • IL-5: Quantikine(Trademark) Human IL-5 ELISA KIT (R&D system) • IL-6: Quantikine(Trademark) Human IL-6 ELISA KIT (R&D system) • TNF-α: Quantikine(Trademark) Human TNF-α ELISA KIT (R&D system) • IFNγ: Quantikine(Trademark) Human IFNγ ELISA KIT (R&D system)
On the technique in general: An ELISA detects its analyte on a solid surface through an enzyme-linked reagent.

A further assay relates to IL-1β. Briefly: Cytokine production inhibitory activity, Concanavalin A stimulated mononuclear cells, ELISA: IL-1β. As to conditions: IL-1β in culture supernatant, human mononuclear cells, Concanavalin A 5 µg/ml, forty-eight hours. The assay is classed as cell-based. The method, then:
as §1

Another assay concerns IL-5. Briefly: Cytokine production inhibitory activity, Concanavalin A stimulated mononuclear cells, ELISA: IL-5. The class given is cell-based. Particulars: IL-5 in culture supernatant, human mononuclear cells, Concanavalin A 5 µg/ml, forty-eight hours. As for the experimental part:
as §1

For the next assay, the target named is T1, human chymase (Homo sapiens, UniProt P23946).
T1 sequence (P23946 22-247): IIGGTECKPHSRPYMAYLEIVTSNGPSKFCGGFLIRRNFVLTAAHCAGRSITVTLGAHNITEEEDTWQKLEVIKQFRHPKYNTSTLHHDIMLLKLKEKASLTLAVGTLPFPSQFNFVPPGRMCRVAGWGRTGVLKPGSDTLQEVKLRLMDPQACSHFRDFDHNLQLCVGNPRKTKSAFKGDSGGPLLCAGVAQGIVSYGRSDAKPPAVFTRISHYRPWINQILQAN
Briefly: Chymase inhibitory activity (Suc-Ala-Ala-Pro-Phe-pNA substrate, absorption 405 nm). The assay is classed as biochemical. As to conditions: purified human chymase, 30 minutes at 37 °C preincubation, substrate 0.5 mM. The method, then:
Compound (I) was dissolved in dimethylsulfoxide (DMSO) at 10^-2 M. Concentration of DMSO for activity measurement was 1 %.
Compound (I) dissolved in DMSO and purified human chymase (Takai et al., Clinica Chimica Acta 265, 1997, 13-20) were added to a buffer (0.1M Tris-HCl, 1.8M NaCl pH8.0). After the mixture was treated for 30 minutes at 37 °C, Suc-Ala-Ala-Pro-Phe-pNA (BACHEM Feinchemikalien AG) was added at 0.5 mM as a substrate and the mixture was enzymatically reacted at 37 °C.
After the reaction, the absorption intensity (405 nm) of the solution was measured to calculate the inhibitory rate.

The subject of the next assay is TNF-α. As to the kind of experiment: Cytokine production inhibitory activity, Concanavalin A stimulated mononuclear cells, ELISA: TNF-α. The class given is cell-based. Particulars: TNF-α in culture supernatant, human mononuclear cells, Concanavalin A 5 µg/ml, forty-eight hours. As for the experimental part:
as §1

In a further assay the test system is IL-2. As to the kind of experiment: Cytokine production inhibitory activity, Concanavalin A stimulated mononuclear cells, ELISA: IL-2. The assay is classed as cell-based. As to conditions: IL-2 in culture supernatant, Concanavalin A 5 µg/ml, forty-eight hours. As for the experimental part:
as §1

The subject of the next assay is IFNγ. As to the kind of experiment: Cytokine production inhibitory activity, Concanavalin A stimulated mononuclear cells, ELISA: IFNγ. The assay is classed as cell-based. As to conditions: IFNγ in culture supernatant, Concanavalin A 5 µg/ml, forty-eight hours. As for the experimental part:
as §1

For the next assay, the system named is IL-4. Briefly: Cytokine production inhibitory activity, Concanavalin A stimulated mononuclear cells, ELISA: IL-4. The class given is cell-based. As to conditions: IL-4 in culture supernatant, Concanavalin A 5 µg/ml, forty-eight hours. As for the experimental part: as §1

Molecules are shown by their SMILES.

By IC50 is commonly meant the concentration at which inhibition is half-maximal. Read a high IC50 as a need for much substance. Take `CC(NC(=O)N1C(=O)C(Cc2ccccc2)C1Oc1ccc(C(=O)N2CCN(C)CC2)cc1)c1ccccc1` (stereo not shown) [Compound I-39, 3-Benzyl-2-[4-(4-methyl-piperazine-1-carbonyl)-phenoxy]-4-oxo-azetidine-1-carboxylic acid (1-phenyl-ethyl)-amide]: the IC50 was found to be 6.4 µM in the assay with IL-6 (Homo sapiens); 2.7 µM with IL-1β; 6.5 µM in the assay with IL-5; 0.00046 µM against human chymase; 1.9 µM in the assay with TNF-α; 2.7 µM in the assay with IL-2 (Homo sapiens). Moreover, the IC50 in the assay with IFNγ (Homo sapiens) was 12.1 µM; with IL-4 (Homo sapiens), 11.7 µM.

Consider `CC(NC(=O)N1C(=O)C(Cc2ccccc2)C1Oc1ccc(C(=O)N2CCN(C)CC2)cc1)c1ccccc1` (stereo not shown) [Compound I-62, 3-Benzyl-2-[4-(4-methyl-piperazine-1-carbonyl)-phenoxy]-4-oxo-azetidine-1-carboxylic acid (1-phenyl-ethyl)-amide], for which the IC50 with IL-6 (human mononuclear cells) came out at 9.3 µM; in the assay on IL-1β, 11.3 µM; with IL-5, 13.9 µM; on human chymase, 0.00017 µM; in the assay with TNF-α, 6.8 µM; in the assay with IL-2 (human mononuclear cells) it was 2.4 µM. The IC50 in the assay on IFNγ (human mononuclear cells) amounted to 17.1 µM; with IL-4 (human mononuclear cells), 20.2 µM.

These data come from EP1099690A1, “MONOCYCLIC $g(b)-LACTAM COMPOUNDS AND CHYMASE INHIBITORS CONTAINING THE SAME” (SHIONOGI & CO., LTD., priority 1998, dated 2000).
